Each structure is given as a SMILES string. Read-outs that look alike come from different tables or passages of the source.

The test system of this experiment is Phytophthora infestans. It counts as in vivo. As to conditions: tomato (Patio) seedling, foliage application.
The mark [1] stands for this setting: concentration of present compound 50 ppm.
The mark [2] stands for this setting: concentration of present compound 200 ppm.

In the case of `COc1ccc(C(=O)NCC2CCCCC2)cc1F` [present compound 7, N-(cyclohexylmethyl)-3-fluoro-4-methoxybenzamide], the Control value result under setting [1] is “++ (40% or more and less than 60% of the lesion spot area on an untreated plant.)”; the Control value entry under setting [2] is listed as “++++ (Less than 20% of the lesion spot area on an untreated plant.)”.
Consider `COc1c(F)cc(C(=O)NCC2CCCCC2)cc1F` [present compound 9, N-(cyclohexylmethyl)-3,5-difluoro-4-methoxybenzamide], for which the Control value result is recorded as “++++ (Less than 20% of the lesion spot area on an untreated plant.)” under setting [1] and “++++ (Less than 20% of the lesion spot area on an untreated plant.)” under setting [2].

The record behind these values is patent US20100137445A1, “PLANT DISEASE CONTROL AGENT, AND PLANT DISEASE CONTROL METHOD” (SUMITOMO CHEMICAL COMPANY ,LIMITED, priority 2007, published 2010).
